Results from patent US10849861B2, “Pharmaceutical compound for treating colorectal cancer” (Everest Pharm. Industrial Co., LTD., priority 2018, dated 2020).

Assays:
[1] = system: human lung cancer cell line A549; test: Cell viability by MTT assay, A549; format: cell-based; settings: A549 lung cancer cells, 24 hours with drug
Text: (§1) The cell line HCT-116 is an adult colorectal cancer cell, and its cells are TGF-β1 and TGF-β2, which are the targeted cells commonly used in preclinical colorectal cancer; the cell line DLD-1 is a […] human colorectal cancer. The cells, which are cancer cells that have invaded the lymph nodes in the late stage, have rapid metastatic growth and are also the targeted cells commonly used in preclinical studies of colorectal cancer; the cell line MCF-7 is an adult […] mastocarcinoma cell with Tx-4 oncogene, which is a targeted cell commonly used in preclinical studies of mastocarcinoma. The cell line A549 is an adult […] lung cancer cell, and its cell characteristic is the ability to synthesize lecithin. Pre-clinical studies of targeted cells are commonly used in lung cancer; cell line EG7 is a lymphoma cell, and its cells with antigen OVA are the targeted cells commonly used in cancer immunotherapy for preclinical studies; cell line L929 is fibroblast, which is the specified cell for preclinical studies of the cytotoxicity standard assay.
(§2) Cell Viability by MTT Assay […]
(§3) 4) The culture solution is extracted, and DMSO is added to dissolve the purple crystals, and the light absorption value is measured at a wavelength of 570 nm.
(§4) 5) The cell survival rate and IC50 of the drug are calculated by comparing the values of the control group with the light absorption values of different groups.

[2] = system: lymphoma cell line E.G7; test: Cell viability by MTT assay, E.G7; format: cell-based; settings: E.G7 lymphoma cells, 24 hours with drug
Text: as §1, §2, §3, §4

[3] = system: human breast cancer cell line MCF-7; test: Cell viability by MTT assay, MCF-7; format: cell-based; settings: MCF7, MCF-7 breast cancer cells, 24 hours with drug
Text: as §1, §2, §3, §4

[4] = system: fibroblast cell line L929; test: Cell viability by MTT assay, L929; format: cell-based; settings: Mus musculus, L929 fibroblast cells, 24 hours with drug
Text: as §1, §2, §3, §4

[5] = system: human colorectal cancer cell line DLD-1; test: Cell viability by MTT assay, DLD-1; format: cell-based; settings: DLD-1 colorectal cancer cells, 24 hours with drug
Text: as §1, §2, §3, §4

[6] = system: human colorectal cancer cell (HT-29) tumors; test: Animal assay: HT-29 colorectal tumor growth in nu/nu mouse; format: in vivo; settings: 10 mg/kg tail vein, 2 times per week, HT-29 in nu/nu mouse
Protocol: The mouse is used as a model organism to observe the inhibition growth of TG1 on colorectal cancer tumors.
1) The human colorectal cancer cell (HT-29) is implanted in the back of mouse (nu/nu mouse), and the tumors are grown to about 250 mm^3 for grouping.
2) The mice are divided into 3 groups (untreated group, treatment group TG1 and clinical anticancer drug Irinotecan of treatment group), 8 mice in each group.
3) The treatment group TG1 and Irinotecan are administered at a concentration of 10 mg/kg, and the drug is administered in the tail vein at a frequency of 2 times per week.
4) Observe the tumor volume growth, the tumor volume calculation formula is: length×width×width×0.5.

[7] = system: human colorectal cancer cell line HCT-116; test: Cell viability by MTT assay, HCT-116; format: cell-based
Text: as §1, §2, §3, §4

[8] = system: human colorectal cancer (Caco2, SW480, HCT116); settings: Saunier et al. 2017; cited from earlier work

| SMILES | IC50 [1] | IC50 [2] | IC50 [3] | IC50 [4] | IC50 [5] | mean tumor volume ([6]; 10th day) | average tumor volume ([6]; 15th day) | average tumor volume ([6]; 20th day) | IC50 ([7]; Homo sapiens, HCT-116 colorectal cancer cells, MTT assay, 24 hours with drug) | ability to poison colorectal cancer cells relative to other cells ([7]; colorectal cancer cells versus other cells, from IC50 values of Table 1) | ability to inhibit cancer cells [8] |
| --- | --- | --- | --- | --- | --- | --- | --- | --- | --- | --- | --- |
| Oc1ccc(/C=C/c2cc(O)cc(O)c2O)cc1 [TG1, 2,3,5, 4′-tetrahydroxy-trans-stilbene] | 63 µM | 180 µM | 190 µM | 255 µM | 0.056 µM | 291 mm^3 | 300 mm^3 | 461 mm^3 | 0.031 µM | 1000-6000 times |  |
| Oc1ccc(C=Cc2cc(O)cc(O)c2)cc1 [resveratrol] |  |  |  |  |  |  |  |  |  |  | no any ability to inhibit cancer cells |
